Patent publication US20050032121A1, “Method of analyzing data obtained from a biological assay” (Pierce Biotechnology, Inc., priority 2003, published 2005)
Ends that are not written are not given here.

What was measured:
[1] = system: PKC purified from rat brain; assay: IQ Platform PKC/PS inhibitor study (fluorescence quench kinase assay); format: biochemical; conditions: Hill slope of the dose response inhibition curve
Experimental: IQ™ Working Solution was prepared by mixing 9 volumes of IQ™ Reagent A and 1 volume of IQ™ Reagent B prior to use to provide full strength IQ™ WS (1×IQ™ WS). The full-strength working solution was further diluted with water to prepare half-strength or quarter-strength IQ™ working solution. In 96 well assays, 4× reaction volume of quarter-strength was added and in 384 and 1536 well assays, 2× reaction volume of half-strength was added.
Enzymatic assays were conducted at room temperature for 1 hour unless otherwise indicated. Reactions were carried out in microwell plates and initiated by addition of ATP or enzyme. Kinase experiments used PKC purified from rat brain. PKC assays were conducted in a final enzyme reaction mixture consisting of 20 mM HEPES, 1 mM CaCl2, 5 mM MgCl2, 1 mM disodium ATP, 1 mM DTT, 0.2 mg/ml phosphatidyl-L-serine, pH 7.4. […] The amounts of enzyme utilized reflect a common unit definition where 1 mU of enzyme is the amount of enzyme required to transfer 1 pmole phosphate per minute at 30° C.
Peptides were labeled on the N-terminus with a proprietary red fluorescent label. Fluorescence was measured using either a BMG PolarStar™ or BMG Optima™ fluorescent plates readers with a 560/590 excitation/emission filter set for the red-fluorophore label.
Inhibitor studies using the IQ Platform with PKC/PS: IC50 values for known PKC inhibitors were determined using fluorophore-labeled pseudosubstrate peptide as the substrate. Inhibitor studies were carried out in triplicate using 500 μU PKC per μl of final enzyme reaction mixture and 60 μM peptide substrate. Inhibitors, diluted in either aqueous solution for water-soluble inhibitors or in 10% DMSO for water-insoluble inhibitors, were incubated with the enzyme for 20 minutes at room temperature, after which the enzymatic reaction was initiated by addition of ATP at a final concentration of 20 μM. The enzymatic reaction was carried out for 1 hour at room temperature followed by addition of 36 μl of 0.5×IQ WS per well. Fluorescence was then measured and data were analyzed using sigmoidal nonlinear regression.

PKC = conditions: literature value, Kuo, J. F. (1994); read-out: Previously Reported IC50; cited from earlier work

Row | Molecule | Calculated Hillslope Best Fit [1] | IC50 (PKC) [µM]
1 | CN(C)CCCn1cc(C2=C(c3c[nH]c4ccccc34)C(=O)NC2=O)c2ccccc21 [Bisindolylmaleimide I] | 1.160 | 0.01
2 | CN[C@@H]1C[C@H]2O[C@@](C)([C@@H]1OC)n1c3ccccc3c3c4c(c5c6ccccc6n2c5c31)C(=O)NC4 [Staurosporine] | 1.225 | […]
3 | Calphostin C | 1.675 | 0.05
4 | Myristoylated Protein Kinase C Inhibitor 20-28, Cell-Permeable: known PKC inhibitor peptide; competitive, peptide binding site (FARKGALRQ; also: myristoylated (place not given here); UniProt P17252 20-28, looked up, fragment) | 0.9018 | 8
5 | Pseudosubstrate PKC Inhibitor Peptide 19-31: known PKC inhibitor peptide; competitive, peptide binding site (RFARKGALRQKNV; UniProt P17252 19-31, looked up, fragment) | 0.8462 | 0.1
6 | Pseudosubstrate PKC Inhibitor Peptide 19-36: known PKC inhibitor peptide; competitive, peptide binding site (RFARKGALRQKNVHEVKD; UniProt P17252 19-36, looked up, fragment) | 1.265 | 0.147
